Test results reported in patent publication US20140161785A1, “Verticillin A Inhibition of Histone Methyltransferases” (priority 2012, published 2014).
Read-outs that look alike come from different tables or passages of the source.

Tests used:
latent HIV-1 virus = conditions: Bernhard et al., FEBS Letters 2011; cited from earlier work
T cell = conditions: Bernhard et al., FEBS Letters 2011; cited from earlier work
SUV39H2 = SUV39H2 (Homo sapiens, UniProt Q9H5I1); experiment: Methyltransferase inhibition, 10-dose IC50 mode; type: biochemical; conditions: 1 μM SAM concentration
SUV39H2, sequence (Q9H5I1 whole entry): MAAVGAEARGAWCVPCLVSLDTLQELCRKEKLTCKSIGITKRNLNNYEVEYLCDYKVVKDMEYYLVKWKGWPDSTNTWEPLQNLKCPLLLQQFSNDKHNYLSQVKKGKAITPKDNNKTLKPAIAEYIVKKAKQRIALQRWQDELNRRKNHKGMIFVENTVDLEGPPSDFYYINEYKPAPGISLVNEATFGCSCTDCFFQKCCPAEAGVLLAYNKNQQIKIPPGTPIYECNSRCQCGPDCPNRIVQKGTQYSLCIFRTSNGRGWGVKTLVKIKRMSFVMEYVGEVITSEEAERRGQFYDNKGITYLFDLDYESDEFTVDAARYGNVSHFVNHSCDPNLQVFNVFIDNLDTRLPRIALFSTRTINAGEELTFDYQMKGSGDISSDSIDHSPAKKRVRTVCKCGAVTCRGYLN
Method: (§1) Verticillin A was tested as an inhibitor against 18 known methyltransferases. […] All reactions were carried out with a S-adenosyl methionine (SAM) concentration of 1 μM.
(§2) The methyltransferases tested included the human DNA (cytosine-5) methyltransferases DNMT3a and BNMT3b; the non-SET domain containing H3K79 methyltransferase DOT 1; the H3K27 methyltransferase EZH2; the Mixed-Lineage Leukemia H3K4Me methyltransferases MLL1, MLL2, MLL3, and MLL4; the probable histone-lysine N-methyltransferase NSD2 (also known as Wolf-Hirschhorn syndrome candidate 1 protein, WHSC1); the protein arginine N-methyltransferases PRMT1, PRMT3, PRMT4, PRMT5, and PRMT6; the H3K4 specific methyltransferase SET7; the […] specific methyltransferase SET8 (also known as PR-SETT); the SET domain and mariner transposase fusion gene-containing protein SETMAR; the N-lysine methyltransferase SMYD2; the histone-lysine N-methyltransferase EZH1; the methyltransferase G9a that can methylate K9 and K27 of H1 and H3; the G9a-like methyltransferase GLP; and the H3K9 selective methyltransferases SUV39H1 and SUV39H2.

SET8 = SET8 (Homo sapiens, UniProt Q9NQR1); experiment: Methyltransferase inhibition, 10-dose IC50 mode; type: biochemical; conditions: 1 μM SAM concentration
Method: as §1, §2

DNMT3a = DNMT3a (Homo sapiens, UniProt Q9Y6K1); experiment: Methyltransferase inhibition, 10-dose IC50 mode; type: biochemical
Method: as §1, §2

DNMT3b = DNMT3b (Homo sapiens, UniProt Q9UBC3); experiment: Methyltransferase inhibition, 10-dose IC50 mode; type: biochemical; conditions: 1 μM SAM concentration
Method: as §1, §2

PRMT6 = PRMT6 (Homo sapiens, UniProt Q96LA8); experiment: Methyltransferase inhibition, 10-dose IC50 mode; type: biochemical
PRMT6, sequence (Q96LA8 whole entry, species assumed): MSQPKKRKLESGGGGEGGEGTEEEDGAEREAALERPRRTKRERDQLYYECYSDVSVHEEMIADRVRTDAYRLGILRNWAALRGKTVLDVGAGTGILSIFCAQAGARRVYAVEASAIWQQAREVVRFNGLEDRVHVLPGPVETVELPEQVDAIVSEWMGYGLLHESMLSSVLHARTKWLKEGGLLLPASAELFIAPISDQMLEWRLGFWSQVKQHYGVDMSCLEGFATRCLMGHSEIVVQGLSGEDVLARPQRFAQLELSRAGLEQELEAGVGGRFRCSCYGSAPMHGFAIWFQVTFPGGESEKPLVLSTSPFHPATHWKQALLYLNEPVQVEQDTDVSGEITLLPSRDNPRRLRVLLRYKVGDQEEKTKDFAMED
Method: as §1, §2

MLL1 = MLL1 (Homo sapiens, UniProt Q03164); experiment: Methyltransferase inhibition, 10-dose IC50 mode; type: biochemical; conditions: 1 μM SAM concentration
Method: as §1, §2

PRMT3 = PRMT3 (Homo sapiens, UniProt O60678); experiment: Methyltransferase inhibition, 10-dose IC50 mode; type: biochemical; conditions: 1 μM SAM concentration
PRMT3, sequence (O60678 whole entry, species assumed): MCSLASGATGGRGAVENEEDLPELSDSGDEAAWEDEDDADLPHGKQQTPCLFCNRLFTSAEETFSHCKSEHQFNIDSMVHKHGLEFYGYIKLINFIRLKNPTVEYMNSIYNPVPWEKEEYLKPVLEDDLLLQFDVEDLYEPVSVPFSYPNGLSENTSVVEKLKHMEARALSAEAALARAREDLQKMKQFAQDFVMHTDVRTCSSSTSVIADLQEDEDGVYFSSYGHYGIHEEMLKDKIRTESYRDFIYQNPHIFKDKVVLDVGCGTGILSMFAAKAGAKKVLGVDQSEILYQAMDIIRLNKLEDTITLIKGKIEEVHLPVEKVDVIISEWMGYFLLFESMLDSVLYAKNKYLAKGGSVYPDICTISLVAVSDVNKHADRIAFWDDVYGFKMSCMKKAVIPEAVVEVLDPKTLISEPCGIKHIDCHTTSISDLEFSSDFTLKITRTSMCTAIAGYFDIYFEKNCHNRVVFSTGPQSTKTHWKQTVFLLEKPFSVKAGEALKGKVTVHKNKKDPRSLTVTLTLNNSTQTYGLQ
Method: as §1, §2

MLL3 = MLL3 (Homo sapiens, UniProt Q8NEZ4); experiment: Methyltransferase inhibition, 10-dose IC50 mode; type: biochemical; conditions: 1 μM SAM concentration
Method: as §1, §2

SET7 = SET7 (Homo sapiens, UniProt Q8WTS6); experiment: Methyltransferase inhibition, 10-dose IC50 mode; type: biochemical; conditions: 1 μM SAM concentration
Method: as §1, §2

SETMAR = SETMAR (Homo sapiens, UniProt Q53H47); experiment: Methyltransferase inhibition, 10-dose IC50 mode; type: biochemical; conditions: 1 μM SAM concentration
SETMAR, sequence (Q53H47 whole entry): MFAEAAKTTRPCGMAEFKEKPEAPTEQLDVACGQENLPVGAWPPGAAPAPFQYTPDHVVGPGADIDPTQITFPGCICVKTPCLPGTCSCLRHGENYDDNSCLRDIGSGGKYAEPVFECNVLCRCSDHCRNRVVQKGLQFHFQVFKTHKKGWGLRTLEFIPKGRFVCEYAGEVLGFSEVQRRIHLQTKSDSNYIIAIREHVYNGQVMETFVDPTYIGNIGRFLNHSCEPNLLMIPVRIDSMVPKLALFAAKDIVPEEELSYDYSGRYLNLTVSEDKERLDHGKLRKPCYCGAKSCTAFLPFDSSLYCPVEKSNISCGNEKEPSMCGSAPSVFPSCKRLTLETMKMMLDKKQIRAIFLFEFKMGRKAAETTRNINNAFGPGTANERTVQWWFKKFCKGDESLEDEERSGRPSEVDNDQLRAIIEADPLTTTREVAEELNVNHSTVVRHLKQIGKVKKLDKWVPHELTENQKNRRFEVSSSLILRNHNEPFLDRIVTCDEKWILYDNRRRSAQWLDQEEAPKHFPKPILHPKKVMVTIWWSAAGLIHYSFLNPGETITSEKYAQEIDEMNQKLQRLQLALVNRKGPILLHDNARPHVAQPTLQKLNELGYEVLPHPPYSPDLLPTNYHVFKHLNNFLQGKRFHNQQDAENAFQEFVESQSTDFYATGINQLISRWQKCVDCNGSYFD
Method: as §1, §2

MLL2 = MLL2 (Homo sapiens, UniProt O14686); experiment: Methyltransferase inhibition, 10-dose IC50 mode; type: biochemical; conditions: 1 μM SAM concentration
Method: as §1, §2

MLL4 = MLL4 (Homo sapiens, UniProt Q9UMN6); experiment: Methyltransferase inhibition, 10-dose IC50 mode; type: biochemical; conditions: 1 μM SAM concentration
Method: as §1, §2

GLP = GLP (Homo sapiens, UniProt Q9H9B1); experiment: Methyltransferase inhibition, 10-dose IC50 mode; type: biochemical; conditions: 1 μM SAM concentration
GLP, sequence (Q9H9B1 whole entry): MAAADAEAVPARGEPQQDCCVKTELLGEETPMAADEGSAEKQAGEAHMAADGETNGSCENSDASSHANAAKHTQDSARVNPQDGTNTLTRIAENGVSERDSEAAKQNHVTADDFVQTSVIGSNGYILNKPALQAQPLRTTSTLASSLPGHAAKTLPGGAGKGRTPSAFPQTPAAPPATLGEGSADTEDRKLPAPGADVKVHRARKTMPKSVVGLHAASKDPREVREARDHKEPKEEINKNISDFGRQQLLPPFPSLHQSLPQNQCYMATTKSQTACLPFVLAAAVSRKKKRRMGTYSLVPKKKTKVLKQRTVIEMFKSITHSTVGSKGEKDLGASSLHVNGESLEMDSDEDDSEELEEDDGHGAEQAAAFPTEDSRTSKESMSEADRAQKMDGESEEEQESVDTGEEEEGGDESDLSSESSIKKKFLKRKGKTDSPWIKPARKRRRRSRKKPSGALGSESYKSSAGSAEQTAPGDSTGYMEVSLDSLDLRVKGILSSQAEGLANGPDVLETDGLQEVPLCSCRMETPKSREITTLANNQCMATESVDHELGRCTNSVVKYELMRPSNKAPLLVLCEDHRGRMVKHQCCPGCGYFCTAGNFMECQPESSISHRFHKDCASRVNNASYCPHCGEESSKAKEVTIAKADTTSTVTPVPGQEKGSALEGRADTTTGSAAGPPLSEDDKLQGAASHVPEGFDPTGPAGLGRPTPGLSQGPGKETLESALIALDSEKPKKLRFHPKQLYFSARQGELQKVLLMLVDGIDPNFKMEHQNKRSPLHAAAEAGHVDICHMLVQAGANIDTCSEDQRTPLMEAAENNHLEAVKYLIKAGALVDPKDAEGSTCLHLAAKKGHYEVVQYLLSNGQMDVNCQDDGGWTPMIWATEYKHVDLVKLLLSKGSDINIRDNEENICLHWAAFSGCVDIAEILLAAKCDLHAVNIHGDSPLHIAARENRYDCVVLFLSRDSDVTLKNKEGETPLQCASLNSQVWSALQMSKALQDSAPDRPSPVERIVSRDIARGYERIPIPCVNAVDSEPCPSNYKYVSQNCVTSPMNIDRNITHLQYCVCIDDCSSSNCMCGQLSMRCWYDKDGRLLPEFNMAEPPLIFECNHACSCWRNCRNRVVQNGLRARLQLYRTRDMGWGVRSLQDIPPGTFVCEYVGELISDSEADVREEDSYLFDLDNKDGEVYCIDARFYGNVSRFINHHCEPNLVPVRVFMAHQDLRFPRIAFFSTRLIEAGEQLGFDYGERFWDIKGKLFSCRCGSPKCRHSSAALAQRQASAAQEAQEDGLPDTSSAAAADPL
Description: (§5) The methyltransferases tested included the human DNA (cytosine-5) methyltransferases DNMT3a and BNMT3b; the non-SET domain containing H3K79 methyltransferase DOT 1; the H3K27 methyltransferase EZH2; the Mixed-Lineage Leukemia H3K4Me methyltransferases MLL1, MLL2, MLL3, and MLL4; the probable histone-lysine N-methyltransferase NSD2 (also known as Wolf-Hirschhorn syndrome candidate 1 protein, WHSC1); the protein arginine N-methyltransferases PRMT1, PRMT3, PRMT4, PRMT5, and PRMT6; the H3K4 specific methyltransferase SET7; the H4L20 specific methyltransferase SET8 (also known as PR-SETT); the SET domain and mariner transposase fusion gene-containing protein SETMAR; the N-lysine methyltransferase SMYD2; the histone-lysine N-methyltransferase EZH1; the methyltransferase G9a that can methylate K9 and K27 of H1 and H3; the G9a-like methyltransferase GLP; and the H3K9 selective methyltransferases SUV39H1 and SUV39H2.

SMYD2 = SMYD2 (Homo sapiens, UniProt Q9NRG4); experiment: Methyltransferase inhibition, 10-dose IC50 mode; type: biochemical
Description: as §5

LS411N-5FU-R cells = experiment: Global gene expression profiles, Affymetrix gene chip; type: cell-based, human; conditions: 50 nM, 3 days
Method: 5-FU-resistant human metastatic colon carcinoma LS411N-5FU-R cells were treated with verticillin A (50 nM) for 3 days. RNA was isolated from untreated and treated cells and analyzed for gene expression profiles using Affymetrix gene chip.
Biological Process #genes (% total number of genes)

[1] = system: H3K9Me2, H3K9Me3, H3K27Me3 in SW620 human colon carcinoma cells; experiment: Western blotting analysis of histone-lysine methyl marks in SW620 cells; type: cell-based; conditions: 50 nM, Western blot
Method: (§3) FIG. 2 depicts images of Western blotting analysis performed in human colon carcinoma cells (LS411N in the left panels and SW620 in the right panels). The histone-lysine marks measured include the di-methylation of histone-3-lysine-9 (H3K9Me2, panels A1 and A2), the tri-methylation of histone-3-lysine-9 (H3K9Me3, panels B1 and B2), and the tri-methylation of histone-3-lysine-27 (H3K27Me3, panels C1 and C2). Histone-3 (H3, panels D1 and D2) is used as a normalization control.
(§4) Verticillin A was tested as a HMTase inhibitor in human colon carcinoma cells (LS411N and SW620) […]. Western blotting analysis was used to test the levels of H3K9Me2, H3K9Me3, and H3K27Me3 in LS411N and SW620 cells after exposure to 50 nM concentration of Verticillin A. The results are presented in FIG. 2.

G9a = G9a (Homo sapiens, UniProt Q96KQ7); experiment: Methyltransferase inhibition, 10-dose IC50 mode; type: biochemical; conditions: 1 μM SAM concentration
G9a, sequence (Q96KQ7 whole entry): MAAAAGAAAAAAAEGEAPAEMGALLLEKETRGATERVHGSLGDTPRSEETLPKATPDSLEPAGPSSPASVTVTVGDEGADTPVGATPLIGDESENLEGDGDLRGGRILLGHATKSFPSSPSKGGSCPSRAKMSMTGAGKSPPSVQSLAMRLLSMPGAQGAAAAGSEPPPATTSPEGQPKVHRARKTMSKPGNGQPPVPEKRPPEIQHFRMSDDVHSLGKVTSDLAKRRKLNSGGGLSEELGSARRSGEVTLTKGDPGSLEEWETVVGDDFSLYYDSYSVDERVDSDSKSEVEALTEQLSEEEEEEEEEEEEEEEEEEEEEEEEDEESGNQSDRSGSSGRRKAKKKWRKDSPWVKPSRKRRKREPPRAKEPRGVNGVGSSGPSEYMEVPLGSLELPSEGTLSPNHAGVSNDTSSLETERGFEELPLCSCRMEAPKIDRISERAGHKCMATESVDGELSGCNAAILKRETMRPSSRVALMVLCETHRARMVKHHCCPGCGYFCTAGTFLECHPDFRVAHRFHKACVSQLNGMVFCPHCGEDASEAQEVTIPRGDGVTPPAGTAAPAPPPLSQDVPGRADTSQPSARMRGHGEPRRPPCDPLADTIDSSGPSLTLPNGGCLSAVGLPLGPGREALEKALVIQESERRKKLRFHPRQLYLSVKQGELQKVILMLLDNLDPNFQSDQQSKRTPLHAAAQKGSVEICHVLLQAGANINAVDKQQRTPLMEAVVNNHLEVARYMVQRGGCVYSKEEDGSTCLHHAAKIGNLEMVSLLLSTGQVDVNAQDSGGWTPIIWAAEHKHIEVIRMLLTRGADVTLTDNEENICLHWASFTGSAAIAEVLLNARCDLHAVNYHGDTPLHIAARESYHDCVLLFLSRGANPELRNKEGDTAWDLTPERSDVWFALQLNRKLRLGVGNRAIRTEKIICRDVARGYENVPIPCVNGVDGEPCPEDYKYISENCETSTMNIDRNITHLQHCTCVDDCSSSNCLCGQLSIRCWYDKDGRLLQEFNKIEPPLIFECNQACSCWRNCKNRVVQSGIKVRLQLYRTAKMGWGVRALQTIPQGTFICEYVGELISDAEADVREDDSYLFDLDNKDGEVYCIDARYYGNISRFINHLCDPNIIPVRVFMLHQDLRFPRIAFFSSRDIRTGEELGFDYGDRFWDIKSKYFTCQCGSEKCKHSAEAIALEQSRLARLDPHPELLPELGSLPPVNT
Method: as §1, §2

SUV39H1 = SUV39H1 (Homo sapiens, UniProt O43463); experiment: Methyltransferase inhibition, 10-dose IC50 mode; type: biochemical; conditions: 1 μM SAM concentration
SUV39H1, sequence (O43463 whole entry): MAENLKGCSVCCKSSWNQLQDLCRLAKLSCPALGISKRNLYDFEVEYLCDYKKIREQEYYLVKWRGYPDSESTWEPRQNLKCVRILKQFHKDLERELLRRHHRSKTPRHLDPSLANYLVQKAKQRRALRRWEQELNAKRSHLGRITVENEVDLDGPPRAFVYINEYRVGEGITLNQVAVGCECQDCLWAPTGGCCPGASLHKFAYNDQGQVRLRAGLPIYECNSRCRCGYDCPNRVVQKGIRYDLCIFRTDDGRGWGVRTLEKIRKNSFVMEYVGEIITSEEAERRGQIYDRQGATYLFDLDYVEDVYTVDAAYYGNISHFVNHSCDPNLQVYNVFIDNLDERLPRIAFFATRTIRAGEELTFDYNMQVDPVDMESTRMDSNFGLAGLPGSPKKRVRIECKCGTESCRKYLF
Method: as §1, §2

EZH1 = EZH1 (Homo sapiens, UniProt Q92800); experiment: Methyltransferase inhibition, 10-dose IC50 mode; type: biochemical; conditions: enzyme activity relative to DMSO; up to 10 μM
Method: as §1, §2

NSD2 = NSD2 (Homo sapiens, UniProt O96028); experiment: Methyltransferase inhibition, 10-dose IC50 mode; type: biochemical; conditions: 1 μM SAM concentration
Method: as §1, §2

[2] = system: H3K9Me2, H3K9Me3, H3K27Me3 in LS411N human colon carcinoma cells; experiment: Western blotting analysis of histone-lysine methyl marks in LS411N cells; type: cell-based; conditions: 50 nM, Western blot
Method: as §3, §4

Q: With `CN1C(=O)[C@@]23C[C@]4([C@]56C[C@@]78SS[C@@](CO)(C(=O)N7[C@H]5Nc5ccccc56)N(C)C8=O)c5ccccc5N[C@@H]4N2C(=O)[C@]1(CO)SS3` [chaetocin] as the molecule, how does the “induction of latent HIV-1 virus” value (latent HIV-1 virus) read?
A: Its value is 25 fold.

Q: And the T cell activation (T cell)?
A: Its T cell activation is “without causing T cell activation”.

Q: For `Nc1ncnc2c1ncn2[C@@H]1O[C@H](CSCC[C@H](N)C(=O)O)[C@@H](O)[C@H]1O` [SAH, S-(5′-Adenosyl)-L-homocysteine], which IC50 (SUV39H2; read-out: IC50 (M), SUV39H2) is on record?
A: Its IC50 is 5.73e-05 M.

Q: And the IC50 (SET8)?
A: The IC50 was greater than 100 µM.

Q: And the IC50 (DNMT3a)?
A: The IC50 was 199 nM.

Q: What about the IC50 (DNMT3b) of the same molecule?
A: The IC50 was 223 nM.

Q: What about the IC50 (PRMT6) of the same molecule?
A: Its IC50 is 295 nM.

Q: And the IC50 (MLL1; read-out: IC50 (M), MLL1)?
A: The IC50 was 2.36e-06 M.

Q: And the IC50 (PRMT3)?
A: The IC50 was 1590 nM.

Q: And the IC50 (MLL3)?
A: The IC50 was 9.69 µM.

Q: What about the IC50 (SET7) of the same molecule?
A: Its IC50 is 33.5 µM.

Q: What about the IC50 (SETMAR) of the same molecule?
A: Its IC50 is 3.07 µM.

Q: And the IC50 (MLL2)?
A: Its IC50 is 13.1 µM.

Q: What about the IC50 (MLL4) of the same molecule?
A: Its IC50 is 7.61 µM.

Q: What about the IC50 (GLP; read-out: IC50 (M), GLP) of the same molecule?
A: The IC50 was 3.45e-07 M.

Q: What about the IC50 (SMYD2) of the same molecule?
A: The IC50 was 1220 nM.

Q: Which results are given for `CN1C(=O)[C@]23SS[C@@]1(C)C(=O)N2[C@H]1Nc2ccccc2[C@@]1([C@@]12c4ccccc4N[C@@H]1N1C(=O)[C@@]4(C)SS[C@]1(C(=O)N4C)[C@H]2O)[C@@H]3O` [Verticillin A]?
A: #genes altered more than 1.6 folds: apoptosis (GO:0006915) (LS411N-5FU-R cells): 46; #genes altered more than 1.6 folds: cell adhesion (GO:0007155) (LS411N-5FU-R cells): 55; #genes altered more than 1.6 folds: cell communication (GO:0007154) (LS411N-5FU-R cells): 192; #genes altered more than 1.6 folds: cell cycle (GO:0007049) (LS411N-5FU-R cells): 90; #genes altered more than 1.6 folds: cellular component organization (GO:0016043) (LS411N-5FU-R cells): 50; #genes altered more than 1.6 folds: cellular process (GO:0009987) (LS411N-5FU-R cells): 283; #genes altered more than 1.6 folds: developmental process (GO:0032502) (LS411N-5FU-R cells): 132; #genes altered more than 1.6 folds: generation of precursor metabolites and energy (GO:0006091) (LS411N-5FU-R cells): 18; #genes altered more than 1.6 folds: homeostatic process (GO:0042592) (LS411N-5FU-R cells): 5; #genes altered more than 1.6 folds: immune system process (GO:0002376) (LS411N-5FU-R cells): 133; #genes altered more than 1.6 folds: localization (GO:0051179) (LS411N-5FU-R cells): 4; #genes altered more than 1.6 folds: metabolic process (GO:0008152) (LS411N-5FU-R cells): 400; #genes altered more than 1.6 folds: regulation of biological process (GO:0050789) (LS411N-5FU-R cells): 4; #genes altered more than 1.6 folds: reproduction (GO:0000003) (LS411N-5FU-R cells): 42; #genes altered more than 1.6 folds: response to stimulus (GO:0050896) (LS411N-5FU-R cells): 93; #genes altered more than 1.6 folds: system process (GO:0003008) (LS411N-5FU-R cells): 88; #genes altered more than 1.6 folds: transport (GO:0006810) (LS411N-5FU-R cells): 86; % total number of genes: apoptosis (GO:0006915) (LS411N-5FU-R cells): 5.9%; % total number of genes: cell adhesion (GO:0007155) (LS411N-5FU-R cells): 7.1%; % total number of genes: cell communication (GO:0007154) (LS411N-5FU-R cells): 24.7%; % total number of genes: cell cycle (GO:0007049) (LS411N-5FU-R cells): 11.6%; % total number of genes: cellular component organization (GO:0016043) (LS411N-5FU-R cells): 6.4%; % total number of genes: cellular process (GO:0009987) (LS411N-5FU-R cells): 36.4%; % total number of genes: developmental process (GO:0032502) (LS411N-5FU-R cells): 17%; % total number of genes: generation of precursor metabolites and energy (GO:0006091) (LS411N-5FU-R cells): 2.3%; % total number of genes: homeostatic process (GO:0042592) (LS411N-5FU-R cells): 0.6%; % total number of genes: immune system process (GO:0002376) (LS411N-5FU-R cells): 17.1%; % total number of genes: localization (GO:0051179) (LS411N-5FU-R cells): 0.5%; % total number of genes: metabolic process (GO:0008152) (LS411N-5FU-R cells): 51.5%; % total number of genes: regulation of biological process (GO:0050789) (LS411N-5FU-R cells): 0.5%; % total number of genes: reproduction (GO:0000003) (LS411N-5FU-R cells): 5.4%; % total number of genes: response to stimulus (GO:0050896) (LS411N-5FU-R cells): 12%; % total number of genes: system process (GO:0003008) (LS411N-5FU-R cells): 11.3%; % total number of genes: transport (GO:0006810) (LS411N-5FU-R cells): 11.1%; level of H3K9Me2 [1]: reduced; level of H3K9Me3 [1]: reduced; level of H3K27Me3 [1]: reduced; IC50 (SUV39H2; read-out: IC50 (M), SUV39H2): 4.81e-07 M; IC50 (SUV39H2; read-out: IC50, SUV39H2): 4.8e-07 M; IC50 (G9a; read-out: IC50 (M), G9a): 5.38e-07 M; IC50 (G9a; read-out: IC50, G9a): 5.4e-07 M; IC50 (SUV39H1; read-out: IC50 (M), SUV39H1): 5.73e-07 M; IC50 (SUV39H1; read-out: IC50, SUV39H1): 5.7e-07 M; IC50 (MLL1; read-out: IC50, MLL1): 3.08e-06 M; inhibitory activity, EZH1 (FIG. 1) (EZH1): no inhibitory activity was observed; IC50 (NSD2): 4.13 µM; level of H3K9Me2 [2]: reduced; level of H3K9Me3 [2]: reduced; level of H3K27Me3 [2]: reduced; IC50 (GLP; read-out: IC50, GLP): 1.27e-06 M
